Assays:
Format in all cases: in vitro ADME
Conditions in all cases: at 50 µM
[1] = target: T1, UGT1A1 (Homo sapiens, UniProt P22309); experiment: UGT1A1-catalyzed SN-38 glucuronidation in human liver microsomes
T1 construct: ultrapooled human liver microsomes (0.2 mg/mL), 5 mM UDPGA; from tissue; host or cells: ultrapooled human liver microsomes
T1 sequence (P22309 26-533): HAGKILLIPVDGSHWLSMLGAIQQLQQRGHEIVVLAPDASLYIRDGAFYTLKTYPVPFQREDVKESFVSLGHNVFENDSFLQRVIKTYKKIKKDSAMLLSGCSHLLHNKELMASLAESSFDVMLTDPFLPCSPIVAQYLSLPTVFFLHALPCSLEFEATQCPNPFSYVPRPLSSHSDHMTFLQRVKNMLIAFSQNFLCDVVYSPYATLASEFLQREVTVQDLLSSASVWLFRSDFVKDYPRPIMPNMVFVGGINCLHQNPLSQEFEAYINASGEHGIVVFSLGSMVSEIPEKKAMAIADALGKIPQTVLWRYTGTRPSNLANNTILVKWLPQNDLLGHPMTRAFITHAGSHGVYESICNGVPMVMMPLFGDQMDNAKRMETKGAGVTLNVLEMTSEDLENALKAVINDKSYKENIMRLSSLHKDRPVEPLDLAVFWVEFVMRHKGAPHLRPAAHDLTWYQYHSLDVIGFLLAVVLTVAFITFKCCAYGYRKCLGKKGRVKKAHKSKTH
Protocol: (§1) The inhibitory effects of EAM-2201 on UGT1A1, UGT1A3, UGT1A4, UGT1A6, UGT1A9 and UGT2B7 were evaluated using LC-MS/MS and the cocktail of UGT substrates as previously described. Each incubation mixture was prepared in a final volume of 100 µL as follows: ultrapooled human liver microsomes (0.2 mg/mL), 5 mM UDPGA, 10 mM magnesium chloride, alamethicin (25 µg/mL), 50 mM Tris buffer (pH 7.4), various concentrations of EAM-2201 in DMSO (final concentrations of 1–50 µM, 0.5% DMSO) and the UGT enzyme-specific substrates of two cocktail sets (set A: 0.5 µM SN-38, 2 µM chenodeoxycholic acid and 0.5 µM trifluoperazine; set B: 1 µM N-acetylserotonin, 0.2 µM mycophenolic acid and 1 µM naloxone, acetonitrile content, 0.5%). […] Supernatant from sets A and B (50 µL of each) was mixed and aliquots (5 µL) were analyzed by LC-MS/MS. […]
(§2) The metabolites formed from the six UGT cocktail substrates were simultaneously measured using LC-MS/MS [41]. […] Each metabolite was quantified via SRM in the negative ion mode: chenodeoxycholic acid 24-acyl-β-glucuronide, 567.2 > 391.0; mycophenolic acid glucuronide, 495.2 > 318.9; and propofol glucuronide (IS), 353.3 > 177.1; and in the positive ion mode: SN-38 glucuronide, 569.0 > 393.0; trifluoperazine glucuronide, 584.2 > 408.1; N-acetylserotonin-β-D-glucuronide, 395.2 > 219.0; naloxone 3-β-D-glucuronide, 504.0 > 310.0; and meloxicam (IS), 352.0 > 115.1. […]

[2] = target: T2, UGT1A4 (Homo sapiens, UniProt P22310); experiment: UGT1A4-catalyzed trifluoperazine N-glucuronidation in human liver microsomes
T2 construct: ultrapooled human liver microsomes (0.2 mg/mL), 5 mM UDPGA; from tissue; host or cells: ultrapooled human liver microsomes
T2 sequence (P22310 29-534): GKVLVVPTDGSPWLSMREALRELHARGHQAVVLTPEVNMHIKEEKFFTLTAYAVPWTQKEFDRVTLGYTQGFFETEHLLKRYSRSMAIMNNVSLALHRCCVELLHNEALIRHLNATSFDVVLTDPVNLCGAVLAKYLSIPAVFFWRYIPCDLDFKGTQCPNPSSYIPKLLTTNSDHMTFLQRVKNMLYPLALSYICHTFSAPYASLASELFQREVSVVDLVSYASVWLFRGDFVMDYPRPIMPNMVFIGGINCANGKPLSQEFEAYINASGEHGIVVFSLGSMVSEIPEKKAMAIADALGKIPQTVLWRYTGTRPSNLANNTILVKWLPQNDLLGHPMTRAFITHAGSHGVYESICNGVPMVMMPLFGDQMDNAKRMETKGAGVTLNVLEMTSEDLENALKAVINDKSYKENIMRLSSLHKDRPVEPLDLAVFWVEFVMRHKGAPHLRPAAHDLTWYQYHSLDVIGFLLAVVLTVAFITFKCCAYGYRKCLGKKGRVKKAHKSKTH
Protocol: as §1, §2

[3] = target: T3, UGT1A6 (Homo sapiens, UniProt P19224); experiment: UGT1A6-catalyzed N-acetylserotonin glucuronidation in human liver microsomes
T3 construct: ultrapooled human liver microsomes (0.2 mg/mL), 5 mM UDPGA; from tissue; host or cells: ultrapooled human liver microsomes
T3 sequence (P19224 27-532): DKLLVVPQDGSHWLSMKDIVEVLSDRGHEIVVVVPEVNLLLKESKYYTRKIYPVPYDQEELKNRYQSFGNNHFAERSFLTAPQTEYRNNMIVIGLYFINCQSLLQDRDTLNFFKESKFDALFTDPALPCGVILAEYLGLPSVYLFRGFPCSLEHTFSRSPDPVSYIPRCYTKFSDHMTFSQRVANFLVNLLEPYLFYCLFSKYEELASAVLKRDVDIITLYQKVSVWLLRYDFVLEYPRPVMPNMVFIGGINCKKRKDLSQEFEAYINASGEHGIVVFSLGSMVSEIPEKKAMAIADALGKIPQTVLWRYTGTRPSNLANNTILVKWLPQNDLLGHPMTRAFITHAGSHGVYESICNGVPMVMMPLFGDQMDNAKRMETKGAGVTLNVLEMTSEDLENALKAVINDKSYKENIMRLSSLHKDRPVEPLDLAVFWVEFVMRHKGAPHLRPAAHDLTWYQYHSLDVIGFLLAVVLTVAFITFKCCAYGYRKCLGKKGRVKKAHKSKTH
Protocol: as §1, §2

CCc1ccc(C(=O)c2cn(CCCCCF)c3ccccc23)c2ccccc12 [EAM-2201, (4-ethyl-1-naphthalenyl)[1-(5-fluoropentyl)-1H-indol-3-yl]-methanone]
negligibly inhibited: inhibition of UGT1A1-catalyzed SN-38 glucuronidation [1] | inhibition of UGT1A4-catalyzed trifluoperazine N-glucuronidation [2] | inhibition of UGT1A6-catalyzed N-acetylserotonin glucuronidation [3]

Reference: PMC6017357, “In Vitro Inhibitory Effects of Synthetic Cannabinoid EAM-2201 on Cytochrome P450 and UDP-Glucuronosyltransferase Enzyme Activities in Human Liver Microsomes” (Molecules : A Journal of Synthetic Chemistry and Natural …, 2018)
